Measurements published in publication PMC5601737, “Potential independent action of sigma receptor ligands through inhibition of the Kv2.1 channel” (Oncotarget, 2017).

Target: T1, Kv2.1 (Rattus norvegicus, UniProt P15387)
T1 construct: gene Kcnb1
T1 sequence (P15387 1-857): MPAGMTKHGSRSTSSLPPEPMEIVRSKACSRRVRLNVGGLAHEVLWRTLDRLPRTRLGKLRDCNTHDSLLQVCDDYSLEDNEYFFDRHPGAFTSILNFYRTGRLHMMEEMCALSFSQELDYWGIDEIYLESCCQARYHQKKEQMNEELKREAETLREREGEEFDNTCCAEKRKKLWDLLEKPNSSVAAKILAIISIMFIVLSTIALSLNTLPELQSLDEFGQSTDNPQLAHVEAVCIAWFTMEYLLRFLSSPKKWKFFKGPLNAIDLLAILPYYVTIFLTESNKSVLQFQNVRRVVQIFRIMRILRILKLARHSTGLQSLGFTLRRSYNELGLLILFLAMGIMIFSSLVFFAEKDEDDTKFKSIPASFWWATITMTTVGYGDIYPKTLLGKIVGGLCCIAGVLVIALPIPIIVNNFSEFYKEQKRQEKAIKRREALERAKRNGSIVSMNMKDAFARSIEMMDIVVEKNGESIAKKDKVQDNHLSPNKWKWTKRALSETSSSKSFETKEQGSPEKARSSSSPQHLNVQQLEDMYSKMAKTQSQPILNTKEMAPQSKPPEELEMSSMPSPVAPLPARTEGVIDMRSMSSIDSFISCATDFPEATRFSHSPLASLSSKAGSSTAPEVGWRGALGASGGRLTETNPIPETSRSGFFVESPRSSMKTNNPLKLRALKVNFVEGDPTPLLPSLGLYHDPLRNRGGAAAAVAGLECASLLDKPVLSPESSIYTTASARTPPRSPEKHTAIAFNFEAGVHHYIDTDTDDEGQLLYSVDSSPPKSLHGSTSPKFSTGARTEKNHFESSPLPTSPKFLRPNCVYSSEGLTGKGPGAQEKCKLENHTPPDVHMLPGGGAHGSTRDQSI
Assay: whole-cell patch clamp, HEK293 stably expressing Kv2.[…], sigma-1 receptor knockout; […] inhibition at […]
Assay type: cell-based

inhibition at 10 µM: 65%
Compound: COc1cccc2c1CCCC2CCCN1CCN(C2CCCCC2)CC1 (stereo not shown) [PB28]
